Laboratory results taken from article PMC11625344, “A peptide derived from the amino terminus of leptin improves glucose metabolism and energy homeostasis in myotubes and db/db mice” (The Journal of Biological Chemistry, 2024).
Where no end group is shown, it is not given here.

Experiments:
TNFα = assay: Serum TNFα ELISA; assay type: in vivo, mouse; settings: metformin-treated db/db group (50 mg/kg), 30 days
Procedure: (§1) In vivo antidiabetic activity of the peptide was studied in diabetic animal model db/db mice. Male db/db mice with hyperglycemia were identified by checking their blood glucose level and selected for the study. Mice were divided into four groups, and the number of animals in each group was five. Blood glucose levels were measured using Accu-Chek glucometer and blood glucose measurement strips. The study was continued for 30 days. At the start of the study, fasting blood glucose in each animal was recorded, and OGTT was performed in each animal of all groups. To perform OGTT, the mice were fasted for 6 h, and then 30 min before oral glucose loading, the fasting blood glucose level in each mouse was recorded. After fasting of 6 h 3 g/kg body weight glucose was loaded orally and blood glucose at 0 minute was recorded simultaneously. Blood glucose was measured after every 30 min at 30, 60, 90, and 120 min after oral glucose loading. Time of oral glucose loading was considered as 0 min. After OGTT on day-1 peptide dosing was started. Dosing of M10 peptide at 10 mg/kg and 20 mg/kg body weight was started from day one on alternate day basis through intraperitoneal route for 30 days. Thus 15 doses of the peptide/drug were administered in each db/db mice over a period of 30 days. On final day, OGTT was performed again with the same procedure described above. […]

AMPK protein = assay: AMPK activation (Thr-172 phosphorylation), Western blot; assay type: cell-based, rat; settings: peptides 5 μM 3 h; metformin 50 μM 6 h; normalised to total AMPK
Source text: (§2) In order to examine the peptide-induced activation of a protein, related to a signaling event, we have assessed its expression in the peptide-treated L6 myotubes with respect to the myotubes, not treated with the peptide and myotubes-treated with a positive control. For this purpose, we have performed Western blotting experiments by usual procedure after resolving the proteins of the whole cell lysates of L6 myotubes, treated at different experimental conditions by SDS-PAGE. Briefly describing the procedure, whole cell lysate was prepared by lysing the cells in radioimmunoprecipitation assay lysis buffer and equal amount of lysate was resolved on 10% SDS-PAGE. Resolved proteins were transferred to nitrocellulose membrane and the membrane was blocked with 5% skimmed milk solution. Incubated with specific primary (ratio of 1: 2500 of antibody to phosphate-buffered saline with Tween 20 (PBST) used for antibodies purchased from Sigma-Aldrich and Millipore, 1:1000 for antibodies purchased from Santa Cruz) and secondary antibodies (antibody concentration of 1:2000 in PBST), and the blots were developed using ChemiDoc ([34]).

db/db mice = assay: In vivo antidiabetic activity, OGTT and fasting blood glucose; design: species or system mouse; settings: metformin 50 mg/kg i.p. on alternate days for 30 days, n = 5
Procedure: In vivo antidiabetic activity of the peptide was studied in diabetic animal model db/db mice. Male db/db mice with hyperglycemia were identified by checking their blood glucose level and selected for the study. Mice were divided into four groups, and the number of animals in each group was five. Blood glucose levels were measured using Accu-Chek glucometer and blood glucose measurement strips. The study was continued for 30 days. At the start of the study, fasting blood glucose in each animal was recorded, and OGTT was performed in each animal of all groups. To perform OGTT, the mice were fasted for 6 h, and then 30 min before oral glucose loading, the fasting blood glucose level in each mouse was recorded. After fasting of 6 h 3 g/kg body weight glucose was loaded orally and blood glucose at 0 minute was recorded simultaneously. Blood glucose was measured after every 30 min at 30, 60, 90, and 120 min after oral glucose loading. Time of oral glucose loading was considered as 0 min. After OGTT on day-1 peptide dosing was started. […] Thus 15 doses of the peptide/drug were administered in each db/db mice over a period of 30 days. On final day, OGTT was performed again with the same procedure described above. Blood sample was collected from each group for serum analysis. Mice were sacrificed by CO2 induced hypoxia. […]

[1] = system: acetyl-CoA carboxylase-2 (ACC2); assay: ACC2 serine-80 phosphorylation, Western blot; assay type: cell-based, rat
Source text: as §2

IL-6 = assay: Serum IL-6 ELISA; assay type: in vivo, mouse; settings: metformin-treated db/db group (50 mg/kg), 30 days
Procedure: as §1

adiponectin = assay: Serum adiponectin ELISA; assay type: in vivo, mouse; settings: metformin 50 mg/kg, 30 days; vs diabetic db/db control group
Procedure: as §1

L6 myotubes [2] = assay: ATP extraction and determination; assay type: cell-based, rat; settings: 24 h; rosiglitazone 10 μM; vehicle-treated control 4 μM; ATP determination kit
Procedure: Whole amount of ATP was extracted from L6-myotubes treated with leptin-1 and leptin-2 peptides and Rosiglitazone, according to the protocol mentioned in the literature ([42]). Briefly, the cells were harvested and pelleted by centrifugation. The harvested cells were incubated with 1% trichloroacetic acid and 4 mM EDTA solution for 10 min on ice for ATP extraction. The samples were centrifuged at 12,000 rpm for 10 min to pellet down the debris, and the supernatant was used for ATP determination. ATP determination was performed according to the protocol mentioned in the ATP determination kit’s manual from Thermo Fisher Scientific. Interference of trichloroacetic acid on ATP determination was avoided by 10× dilution of the sample in water.

L6 myotubes [3] = assay: Mitochondrial biogenesis assay using MitoTracker red; assay type: cell-based, rat; settings: 24 h incubation; rosiglitazone 10 μM; confocal microscopy, ImageJ
Procedure: Mitochondrial biogenesis was studied in L6 cells using mitochondrial stain MitoTracker CMXRos. The cells L6 was seeded in 4-chambered slide with a density of 20,000 cells per chamber. The cells were differentiated to myotubes following the protocol mentioned above. […] Following treatment with test peptides the cells were stained with MitoTracker red and Hoechst. The cells were then washed with PBS to remove the residual stains. Cells were then fixed with 4% paraformaldehyde and the slides were mounted using DPX. The slides were then imaged using confocal microscope. The excitation and emission wavelengths were fixed at 578 and 599 nm for red and 357 and […] for blue emission, respectively ([41]).

L6 cells = settings: peptide up to 100 μM, 2 h; MTT, absorbance 540 nm
Procedure: Biological activity and toxicity of the purified peptides were studied on rat skeletal muscle cell line L6. L6 cell line was seeded, grown, and differentiated according to the protocols described earlier ([34]). In brief, cells were grown in low glucose-DMEM and differentiated using DMEM containing 2% fetal bovine serum supplemented 1% Antibiotic-Antimycotic ([38], [39]).

BALB/c mice = assay: In vivo acute toxicity and survival study; design: species or system mouse
Procedure: In vivo toxicity and survival study with the peptides were performed in BALB/c mice. Mice were divided into five groups, each group with five number of mice. One group was kept as control group and injected only with vehicle (Water). […] Dosing was done through intraperitoneal route and only a single dosing was performed. The mice were kept under observation for a week after peptide injection. After 1 week of observation, survival of mice in all groups was recorded. At seventh day, blood samples were collected from each mice in all the groups, and the serum was isolated to estimate aspartate transaminase and alanine transaminase level ([43]).

GLUT4 [4] = assay: GLUT4 translocation to plasma membrane, immunocytochemistry; assay type: cell-based, rat; settings: leptin-1 5 μM 3 h; insulin 100 nM 20 min; confocal imaging
Procedure: ICC analysis for GLUT4 translocation to PM was studied in L6 myotubes. L6 cells were grown and differentiated in 4-chambered slide following the protocol described above. The differentiated cells were treated with test peptide and positive control insulin for specified time period. Cells were fixed in formalin and perforated using 0.4% Triton X-100. The cells were then immunostained using anti-GLUT4 primary antibody (1:100 dilution) and incubated overnight at 4 °C. Cells were washed three times with PBST and then incubated with Alexa flour-488 tagged secondary antibody and incubated for 2 h. After 2 h, cells were again washed 5 times with PBST, and nuclear staining was performed by incubating the cells for 30 min with Hoechst nuclear stain. The cells were then again washed 3 times and the slide was mounted using DPX mounting media. Imaging of the slides was done using confocal microscope, blue range and green ranges filters were used ([34]).

AKT = AKT activation (p-AKT), Western blot; assay type: cell-based, rat; settings: leptin-1 5 μM 3 h; insulin 100 nM 30 min; vs vehicle; normalised to total AKT
Source text: as §2

IRS1 = IRS1 expression, Western blot; assay type: cell-based, rat; settings: peptides 5 μM 3 h; insulin 100 nM 30 min; vs vehicle
Source text: as §2

GLUT4 [5] = assay: GLUT4 expression, Western blot; assay type: cell-based, rat; settings: peptides 5 μM 3 h; insulin 100 nM 30 min; vs vehicle; beta-actin loading control
Source text: as §2

GLUT4 [6] = assay: GLUT4 translocation to plasma membrane, Western blot of cytosolic and membrane fractions; assay type: cell-based, rat; settings: leptin-1 5 μM 3 h; insulin 100 nM 20 min; vs vehicle-treated control
Procedure: Separation of cytosolic and membrane fraction was performed according to the protocol mentioned earlier ([34]). In brief, the harvested cells were resuspended in membrane fractionation buffer ([40]) and kept for 1 h with regular tapping. Cellular debris were removed by centrifugation at 800g for 10 min, and the supernatant was collected in fresh micro centrifuge tube, which contains the cytosolic and crude membrane fractions. Crude membrane and cytosolic fraction were separated by centrifugation at 12000 rpm for 10 min at 4 °C. The crude membrane pellet was resuspended in radioimmunoprecipitation assay lysis buffer to elute out membrane proteins and then centrifuged at 15000 rpm for 15 min. Whole process was performed on ice. Both the samples were than resolved on 10% SDS-PAGE ([38], [40]).
In order to examine the peptide-induced activation of a protein, related to a signaling event, we have assessed its expression in the peptide-treated L6 myotubes with respect to the myotubes, not treated with the peptide and myotubes-treated with a positive control. For this purpose, we have performed Western blotting experiments by usual procedure after resolving the proteins of the whole cell lysates of L6 myotubes, treated at different experimental conditions by SDS-PAGE. […]

L6 myotubes [7] = assay: Glucose uptake assay with 2NBDG; assay type: cell-based, rat
Procedure: As described earlier ([34]), glucose uptake assay was performed in L6 myotubes using 2NBDG. Briefly describing, L6 cells were seeded and differentiated to myotubes as described above. Differentiated myotubes were serum fasted for 6 h with serum free DMEM and the cells were incubated with desired concentration of leptin-1 and leptin-2 peptides for specified period. […] Following peptide treatment, the cells were incubated with 200 μM of 2NBDG for 10 min and the residual 2NBDG was removed and washed with PBS. Cells were trypsinized and collected in fluorescence activated cell sorting tube for fluorescence measurement. To estimate the uptake of fluorescent glucose analog, fluorescence of the cells from different samples was measured using fluorescence activated cell sorting Aria instrument.

[8] = 10, 20, 40 and 80 mg/kg, day 7, comparable to vehicle-treated control

CN(C)C(=N)N=C(N)N [metformin]
inhibition of TNFα production (TNFα): 44%
AMPK Thr-172 phosphorylation (AMPK protein): 2 fold
fasting blood glucose (FBG) (db/db mice): reduced FBG
glucose tolerance (OGTT) (db/db mice; oral glucose 3 g/kg): improved glucose tolerance
phosphorylation of S80 of ACC2 after dorsomorphin pretreatment ([1]; dorsomorphin 1 h, then leptin-1 5 μM 3 h or metformin): prevented
phosphorylation of S80 residue of ACC2 ([1]; peptides 5 μM 3 h, metformin positive control): significantly increased S80 residue phosphorylation
inhibition of IL-6 production (IL-6): 52%
increase in serum adiponectin production (adiponectin): 2.6 fold

CN(CCOc1ccc(CC2SC(=O)NC2=O)cc1)c1ccccn1 (centres unmarked) [rosiglitazone]
ATP production (L6 myotubes [2]): 13 µM
mitochondrial biogenesis (Mitotracker red fluorescence) (L6 myotubes [3]): significantly increased mitochondrial biogenesis

KQKVTGLDFIPGLHPIL-NH2 [leptin-1]
viability of L6 cells (L6 cells): ~95%
survival (BALB/c mice; 10, 20, 40 and 80 mg/kg body weight, intraperitoneal, 7 days): 100%
serum alanine transaminase level (BALB/c mice; [8]): normal
serum aspartate transaminase level (BALB/c mice; [8]): normal
body weight (BALB/c mice; all peptide-treated groups, until end of 7 days): stable body weights

VVALSRLQGSLQDMLW-NH2 [leptin-2]
viability of L6 cells (L6 cells): ~95%

insulin: human insulin (Sigma-Aldrich), positive control at 100 nM
GLUT4 translocation to PM (ICC, green fluorescence on PM) (GLUT4 [4]): appreciable increase in green fluorescence
AKT activation (p-AKT) (AKT): 4.2 fold
IRS1 activation and expression (IRS1): 1.6 fold
GLUT4 expression (GLUT4 [5]): 1.6 fold
GLUT4 translocation to PM (GLUT4 [6]): 4 fold
glucose uptake, positive control (L6 myotubes [7]; insulin 100 nM, Fig. 2D): significantly increased glucose uptake
glucose uptake without inhibitor (L6 myotubes [7]; leptin-1 5 μM 3 h, insulin 100 nM 30 min, Fig. 5C): 2.4 fold
